Drawing on ChEMBL document CHEMBL3233001, “Pharmacophoric modifications lead to superpotent αvβ3 integrin ligands with suppressed α5β1 activity” (J Med Chem, 2014), this text covers IC50 for six compounds.

Assay type in all cases: protein-complex assay
The target in one assay is Integrin alpha-V/beta-3 (Homo sapiens, UniProt P05106+P06756). Briefly: Inhibition of vitronectin binding to human alphavbeta3 integrin receptor after 1 hr by competitive solid-phase binding ELISA. For orientation: ELISA stands for enzyme-linked immunosorbent assay.
A further assay addresses Integrin alpha-5/beta-1 (Homo sapiens, UniProt P05556+P08648). Briefly: Inhibition of fibronectin binding to human alpha5beta1 integrin receptor after 1 hr by competitive solid-phase binding ELISA.
The target of another assay is Integrin alpha-V/beta-6 (Homo sapiens, UniProt P06756+P18564). Briefly: Inhibition of LAP binding to human alphavbeta6 integrin receptor after 1 hr by competitive solid-phase binding ELISA.
Assay [1] concerns the target Integrin alpha-IIb/beta-3 (Homo sapiens, UniProt P05106+P08514). Briefly: Inhibition of fibrinogen binding to alpha2bbeta3 integrin receptor (unknown origin) after 1 hr by competitive solid-phase binding ELISA.
Another assay concerns the target Integrin alpha-V/beta-5 (Homo sapiens, UniProt P06756+P18084). Briefly: Inhibition of vitronectin binding to alphavbeta5 integrin receptor (unknown origin) after 1 hr by competitive solid-phase binding ELISA.

In the case of `COc1ccnc(NCCCOc2ccc(C[C@@H](CC(=O)NO)NS(=O)(=O)c3ccc(C)cc3)cc2)c1`, the IC50 at Integrin alpha-V/beta-3 is 75.1 nM; on Integrin alpha-5/beta-1, above 10000 nM.
In the same order, the values of `COc1ccnc(NCCCOc2ccc(C[C@@H](CC(=O)NO)NC(=O)c3ccc(OC(C)C)cc3)cc2)c1` are 638 nM and above 10000 nM.
As for `COc1ccnc(NCCCOc2ccc(C[C@@H](CC(=O)O)NC(=O)c3ccc(OC(C)C)cc3)cc2)c1`, the IC50 on Integrin alpha-V/beta-6 was 20 nM; on Integrin alpha-V/beta-3, 0.86 nM; in assay [1], above 10000 nM; on Integrin alpha-5/beta-1 it was 126 nM; at Integrin alpha-V/beta-5, 227 nM.
Turning to `COc1ccnc(NCCCOc2ccc(C[C@@H](CC(=O)O)NS(=O)(=O)c3ccc(C)cc3)cc2)c1`, the IC50 at Integrin alpha-V/beta-3 is 0.65 nM; in assay [1], above 10000 nM; at Integrin alpha-5/beta-1, 108 nM.
For `Cc1cccc(NCCCOc2ccc(C[C@@H](CC(=O)O)NC(=O)c3ccccc3)cc2)n1`, the 50% inhibitory concentration (IC50) at Integrin alpha-V/beta-3 is 110 nM; at Integrin alpha-5/beta-1, above 10000 nM.
On the same counts, the results for `COc1ccnc(NCCCOc2ccc(C[C@@H](CC(=O)O)NC(=O)c3ccc(F)cc3)cc2)c1` are 1.6 nM and 64.2 nM.

As a reminder, the IC50 is the concentration needed to halve the response being measured.
